The values that follow come from patent publication US8058233B2, “Modification of feeding behavior using PYY and GLP-1” (Oregon Health and Science University, priority 2002, dated 2011).

One experiment relates to POMC neurons. Nature of the experiment: Whole cell recordings from fluorescent POMC-EGFP neurons in ARC slices (Example 2). The format is cell-based, mouse.
Experiment [1] can be described thus: 1-hour food intake after IP GLP-1 with intra-arcuate exendin 9-39 in non-fasted rats. The experiment is classed as in vivo, rat. The note with it: GLP-1 25 nmol/kg, exendin 9-39 20 nmoles/kg, FIG. 11. The protocol:
GLP-1 i.e. GLP-1 (7-36) amide (25 nmol/kg) or saline (control) was administered parenterally to non-fasted rats prior to the onset of the dark phase. Exendin 9-39 (20 nmoles/kg) or saline (control) injected into the arcuate nucleus of non-fasted rats. Food intake one hour later was measured.

Experiment [2] can be described thus: Intracerebroventricular GLP-1 in rats. The experiment is classed as in vivo, rat. From the text:
This effect is blocked by the specific GLP-1 receptor antagonist, exendin 9-39. GLP-1 receptors are found in the brainstem, arcuate nucleus and PVN. Following ICV GLP-1 administration, c-fos is expressed in the arcuate nucleus and PVN.

Experiment [3] is described as follows: Co-administration of PYY3-36 and GLP-1 by intravenous infusion in humans, free buffet meal. The format is in vivo, human. The text has this: 10 healthy volunteers (4 men and 6 women) having a mean age of 24.7 (±0.8) years and a mean BMI of 22.7 (±0.6) kg/m^2 were recruited. The volunteers were asked to fast and to drink only water from 9 pm on the night preceding all study days. Each volunteer attended for four study days. The volunteers arrived at 9.30 am and the venflons were inserted.
The study was double blinded. GLP-1 is i.e. GLP-1 (7-36) amide

The subject of experiment [4] is non-fluorescent ARC neurons. Briefly: Recordings from adjacent non-fluorescent ARC neurons. The format is cell-based, mouse. The note with it: 13 cells tested.

No end group written: not given here.

Turning to D-Trp^8-γMSH, the “increase in frequency of GABAergic IPSCs in POMC neurons” value in the experiment on POMC neurons (7 nM, 3 of 4 POMC neurons) was found to be 280±90%. Further, the “hyperpolarization of POMC neurons” value in the experiment with POMC neurons (7 nM, 9 of 15 POMC neurons) is given as −5.5±2.4 mV.

As to met-enkephalin, in the experiment with POMC neurons (30 μM), the “time to hyperpolarization of POMC cells” value lay within 35 to 40 s. Further, the “hyperpolarization of the membrane potential of POMC cells” value in the experiment on POMC neurons (30 μM, n=10, reversible) is 10-20 mV.

For CTAP, the “effect on the current induced by Met-Enk in POMC cells” value in the experiment on POMC neurons (CTAP 1 μM, Met-Enk 30 μM, n=3) was “completely prevented”.

With “GLP-1 (7-36) amide (HAEGTFTSDVSSYLEGGAAKEFIAWLVKGR-NH2)”, the “effect of IP GLP-1 on 1-hour food intake with exendin 9-39 in the arcuate nucleus” value in experiment [1] is “not influenced by the presence of concomitant exendin 9-39”. In experiment [2], the “food intake after ICV administration” value is reported as “potently inhibits food intake”. For the same substance, the “Food intake from free buffet meal, mean” value in experiment [3] (IV infusion 0.4 pmol/kg/min for 120 minutes (90 minutes pre-meal), 10 volunteers, saline 997) was determined as 950 kcal. The “% reduction from saline” value in experiment [3] (IV infusion 0.4 pmol/kg/min for 120 minutes, free buffet meal) was 5%.

With “leptin: leptin, hormone applied to POMC cells in slice preparations”, the “decrease in frequency of GABAergic IPSCs in POMC cells” value in the experiment on POMC neurons (100 nM, in 5 out of 15 cells) is reported as 25%. For the same substance, in the experiment on POMC neurons (100 nM, n=45), the “depolarization of POMC cells, mean±SEM” value came to 9.7±1.2 mV. Further, in the experiment on POMC neurons (0.1-100 nM), the “time to depolarization of POMC cells” value is 2 to 10 min. For the same substance, in the experiment on POMC neurons (0.1-100 nM, 72 of 77 POMC cells), the “depolarization of POMC cells” value is listed as 3-30 mV. For the same substance, in experiment [4], the “effect on membrane potential of non-fluorescent ARC cells” value is “had no effect on 5 of 13 adjacent non-fluorescent cells tested (FIG. 3e), while it hyperpolarized 5 (FIG. 3f) and depolarized 3 other non-POMC neurons”.

With neuropeptide Y [NPY], in the experiment with POMC neurons (n=3), the “hyperpolarization of POMC neurons, average” value turned out to be 9±6 mV.

Take exendin 9-39: the “effect on inhibition of food intake by ICV GLP-1” value in experiment [2] is “blocked”.
